Source: US8080529B2, “Macrolides with anti-inflammatory activity” (Glaxo Group Limited, priority 2005, dated 2011)
Read-outs that look alike come from different tables or passages of the source.

Assays:
Type in all cases: cell-based
TNF-α = experiment: Inhibition of TNF-α production by stimulated human peripheral blood leukocytes in vitro; conditions: Homo sapiens, Leukocyte, read-out: Percentage of inhibition of TNF-α production
Experimental: (§1) Test substances used in in vitro experiments were dissolved in dimethyl sulfoxide (DMSO) (Kemika, Croatia) at concentrations of 50 mM and 10 mM, and were further diluted to final concentrations of 50 μM and 10 μM in 1 mL Dulbecco's modified Eagle medium (DMEM) supplemented with 1% heat inactivated fetal bovine serum (FBS), 1% L-glutamine, 50 U/ml penicillin, 50 μg/ml streptomycin and 2.5 μg/mL Fungizone (amphotericin B). Media and all media supplements were purchased from Gibco, Australia, except the FBS was purchased from Sigma, USA.
(§2) Peripheral blood leukocytes (PBL) were obtained from venous blood of healthy volunteers by sedimentation on 2% dextran T-500 (Amersham Biosciences, USA) and subsequent centrifugations of leukocyte rich plasma.
(§3) Peripheral blood leukocytes (PBL), isolated as described above, were seeded in a 48-well plate at a concentration of 3 to 5×10^6 cell per well in culture medium consisting of RPMI 1640 medium (Institute of Immunology, Croatia) supplemented with 10% heat-inactivated fetal calf serum (FCS, Biowhittaker, USA), 100 U/ml penicillin (Gibco, Australia), 100 μg/ml streptomycin (Gibco, Australia) and 2 mM L-glutamine (Gibco, Australia), and preincubated with the test compounds for 2 h at 37° C., in an atmosphere of 5% CO2, and 90% humidity. Then, stimuli (Sigma, USA) were added to a final concentration of 2 μg/mL lipopolysaccharide (LPS), 1 μg/mL phorbol 12-myristate 13-acetate (PMA) or 120 μg/mL zymosan. Samples were incubated overnight under conditions described above. At the end of incubation, the supernatants were transferred to eppendorf tubes and centrifuged for 10 min at 1500×g. Concentrations of human TNF-α, IL-1β, IL-6 and IL-8 were determined in cell supernatants by sandwich ELISA, using capture and detection antibodies (R&D Systems, Minneapolis, Minn.) according to the manufacturer's recommendations.
(§4) Inhibition (as percentage) was calculated using the following formula: % inhibition=(1−concentration of cytokines in sample/concentration of cytokines in positive control)×100.
(§5) The positive control refers to LPS-, PMA- or zymosan-stimulated samples that were not preincubated with test compounds.

IL-1α = experiment: Inhibition of IL-1 production by stimulated human peripheral blood leukocytes in vitro; conditions: Homo sapiens, Leukocyte, read-out: Percentage of inhibition of IL-1α production
IL-6 = experiment: Inhibition of IL-6 production by stimulated human peripheral blood leukocytes in vitro; conditions: Homo sapiens, Leukocyte, read-out: Percentage of inhibition of IL-6 production
Experimental: as §1, §2, §3, §4, §5

IL-8 = experiment: Inhibition of IL-8 production by stimulated human peripheral blood leukocytes in vitro; conditions: Homo sapiens, Leukocyte, read-out: Percentage of inhibition of IL-8 production
Experimental: as §1, §2, §3, §4, §5

Hep G2 = experiment: Cytotoxicity assay (MTT), Hep G2 cell line; conditions: 24 h
Experimental: (§6) To determine whether the anti-inflammatory activity of the test compounds was due to observed inhibition of cytokine production and inhibition of proliferation in vitro, and was not a consequence of cellular cytotoxicity, measurement of succinate dehydrogenase activity in living cells was performed. Cells were cultured for 24 h in RPM medium as described above at 37° C. the presence of the test compounds at concentrations of 50 μM and 12.5 μM. MTT [3-(4,5-dimethylthiazole-2-yl)-2,5-diphenyl tetrazolium bromide] (Promega, USA), a detection reagent, was then added and the cultures were incubated for 0.5-2 h. The amount of MTT-Formazan produced was determined using a spectrophotometer at 490 nm (Mosmann, J. Immunol. Methods, 1983, 65: 55-63).
(§7) The percentage of inhibition of cell growth was calculated using the following formula: % inhibition of cell growth=[…].

A549 = experiment: Cytotoxicity assay (MTT), A549 cell line; conditions: 24 h
Experimental: as §6, §7

| Compound | inhibition at 10 µM (TNF-α; LPS-stimulated PBL) | inhibition at 10 µM (TNF-α; PMA-stimulated PBL) | inhibition at 10 µM (TNF-α; zymosan-stimulated PBL) | inhibition at 50 µM (TNF-α; LPS-stimulated PBL) | inhibition at 50 µM (TNF-α; PMA-stimulated PBL) | inhibition at 50 µM (TNF-α; zymosan-stimulated PBL) | inhibition at 10 µM (IL-1α; LPS-stimulated PBL) | inhibition at 10 µM (IL-1α; PMA-stimulated PBL) | inhibition at 10 µM (IL-1α; zymosan-stimulated PBL) | inhibition at 50 µM (IL-1α; LPS-stimulated PBL) | inhibition at 50 µM (IL-1α; PMA-stimulated PBL) | inhibition at 50 µM (IL-1α; zymosan-stimulated PBL) | inhibition at 10 µM (IL-6; LPS-stimulated PBL) | inhibition at 10 µM (IL-6; PMA-stimulated PBL) | inhibition at 10 µM (IL-6; zymosan-stimulated PBL) | inhibition at 50 µM (IL-6; LPS-stimulated PBL) | inhibition at 50 µM (IL-6; PMA-stimulated PBL) | inhibition at 50 µM (IL-6; zymosan-stimulated PBL) | inhibition at 10 µM (IL-8; LPS-stimulated PBL) | inhibition at 10 µM (IL-8; PMA-stimulated PBL) | also measured |
| --- | --- | --- | --- | --- | --- | --- | --- | --- | --- | --- | --- | --- | --- | --- | --- | --- | --- | --- | --- | --- | --- |
| CC[C@H]1OC(=O)[C@H](C)[C@@H](O[C@H]2C[C@@](C)(OC)[C@@H](OC(=O)CCN3CCN(CC4CCCN(C)C4)CC3)[C@H](C)O2)[C@H](C)[C@@H](O[C@@H]2O[C@H](C)C[C@H](N(C)C)[C@H]2O)[C@](C)(OC)C[C@@H](C)C(=O)N[C@H](C)[C@@H](O)[C@]1(C)O (stereo partly shown) [Example 33] | 16% | 23% | 16% | 50% | 74% | 53% | 28% | 33% | 55% | 42% | 75% | 85% | 8% | 9% | 13% | 30% | 49% | 40% | 0% | 0% | inhibition at 10 µM (IL-8; zymosan-stimulated PBL): 0%; inhibition at 50 µM (IL-8; LPS-stimulated PBL): 11%; inhibition at 50 µM (IL-8; PMA-stimulated PBL): 10%; inhibition at 50 µM (IL-8; zymosan-stimulated PBL): 40%; Percentage of inhibition of cell growth (Hep G2; 12.5 μM): 5%; Percentage of inhibition of cell growth (Hep G2; 50 μM): 4%; Percentage of inhibition of cell growth (A549; 12.5 μM): 0%; Percentage of inhibition of cell growth (A549; 50 μM): 0% |
| CC[C@H]1OC(=O)[C@H](C)[C@@H](O[C@H]2C[C@@](C)(OC)[C@@H](OC(=O)CCN3CC(C)CC(C)C3)[C@H](C)O2)[C@H](C)[C@@H](O[C@@H]2O[C@H](C)C[C@H](N(C)C)[C@H]2O)[C@](C)(OC)C[C@@H](C)C(=O)N[C@H](C)[C@@H](O)[C@]1(C)O (stereo partly shown) [Example 37] | 15% | 28% | 17% | 76% | 45% | 96% | 60% | 14% | 49% | 69% | 25% | 98% | 20% | 41% | 21% | 78% | 57% | 100% | 14% | 17% | inhibition at 10 µM (IL-8; zymosan-stimulated PBL): 27%; inhibition at 50 µM (IL-8; LPS-stimulated PBL): 0%; inhibition at 50 µM (IL-8; PMA-stimulated PBL): 10%; inhibition at 50 µM (IL-8; zymosan-stimulated PBL): 0%; Percentage of inhibition of cell growth (Hep G2; 12.5 μM): 3%; Percentage of inhibition of cell growth (Hep G2; 50 μM): 19%; Percentage of inhibition of cell growth (A549; 12.5 μM): 1%; Percentage of inhibition of cell growth (A549; 50 μM): 0% |
| CC[C@H]1OC(=O)[C@H](C)[C@@H](O[C@H]2C[C@@](C)(OC)[C@@H](OC(=O)CCNC3CC3)[C@H](C)O2)[C@H](C)[C@@H](O[C@@H]2O[C@H](C)C[C@H](N(C)C)[C@H]2O)[C@](C)(OC)C[C@@H](C)C(=O)N[C@H](C)[C@@H](O)[C@]1(C)O [Example 40] | 67% | 55% | 60% | 82% | 77% | 76% | 0% | 0% | 1% | 28% | 0% | 55% | 7% | 0% | 0% | 0% | 0% | 0% | 24% | 31% | inhibition at 10 µM (IL-8; zymosan-stimulated PBL): 6%; inhibition at 50 µM (IL-8; LPS-stimulated PBL): 0%; inhibition at 50 µM (IL-8; PMA-stimulated PBL): 12%; inhibition at 50 µM (IL-8; zymosan-stimulated PBL): 0%; Percentage of inhibition of cell growth (Hep G2; 12.5 μM): 2%; Percentage of inhibition of cell growth (Hep G2; 50 μM): 2%; Percentage of inhibition of cell growth (A549; 12.5 μM): 0%; Percentage of inhibition of cell growth (A549; 50 μM): 0% |
| CC[C@H]1OC(=O)[C@H](C)[C@@H](O[C@H]2C[C@@](C)(OC)[C@@H](OC(=O)CCN3CCCCCC3)[C@H](C)O2)[C@H](C)[C@@H](O[C@@H]2O[C@H](C)C[C@H](N(C)C)[C@H]2O)[C@](C)(OC)C[C@@H](C)C(=O)N[C@H](C)[C@@H](O)[C@]1(C)O [Example 41] | 39% | 30% | 27% | 95% | 70% | 99% | 79% | 52% | 80% | 84% | 100% | 100% | 25% | 59% | 36% | 92% | 79% | 100% | 29% | 10% | inhibition at 10 µM (IL-8; zymosan-stimulated PBL): 19%; inhibition at 50 µM (IL-8; LPS-stimulated PBL): 87%; inhibition at 50 µM (IL-8; PMA-stimulated PBL): 42%; inhibition at 50 µM (IL-8; zymosan-stimulated PBL): 63%; Percentage of inhibition of cell growth (Hep G2; 12.5 μM): 7%; Percentage of inhibition of cell growth (Hep G2; 50 μM): 3%; Percentage of inhibition of cell growth (A549; 12.5 μM): 1%; Percentage of inhibition of cell growth (A549; 50 μM): 0% |
